Laboratory results as given in PubChem BioAssay (NCI).
Values joined by “and” are separate entries in the source; they are usually repeats but may differ in a detail not shown here. Equal values may be shown once.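 Where inhibition never reached the appropriate level, the endpoint shown equals the highest concentration tested. Otherwise, values were interpolated linearly from a five-concentration, 48-hour dose response in 96-well plates. GI50 marks 50% less growth. TGI: concentration producing complete growth inhibition.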

Columns and labels:
Assay in all cases: NCI-60 cell line screen, 48 h
[1] = test system: COLO 205 colon
[2] = test system: HCT-116 colon
[3] = test system: NCI-H23 lung
[4] = test system: LOX IMVI melanoma
[5] = test system: SF-295 CNS
[6] = test system: SF-268 CNS
[7] = test system: SF-539 CNS
[8] = test system: OVCAR-4 ovarian

SMILES | GI50 [1] [µM] | TGI [1] | GI50 [2] | TGI [2] [µM] | GI50 [3] [µM] | TGI [3] [µM] | GI50 [4] [µM] | TGI [4] | GI50 [5] [µM] | TGI [5] | GI50 [6] [µM] | TGI [6] [µM] | GI50 [7] [µM] | TGI [7] | GI50 [8] [µM] | TGI [8]
CC(C)CCN1c2nc(Nc3cc(F)c(O)c(F)c3)ncc2N(C)C(=O)C1C (centres undefined) | 14.6 | 29.3 µM | 4.37 µM | 30.1 | 5.27 | 67.8 | 4.11 | 20.8 µM | 11.3 | > 100 µM | 5.81 | 56.8 | 4.26 | 21.8 µM | 18.6 | > 100 µM
O=C(Cc1ccc(/C=C/C(=O)c2ncc[nH]2)cc1)Nc1cc(F)c(F)c(F)c1 | 4.08 | 9.4 µM | 2.04 µM | 5.38 | 3.82 | 9.11 | 1.56 | 4.81 µM | 6.82 | 20.5 µM | 5.26 | 20.1 | 3.56 | 6.95 µM | 4.81 | > 25 µM
COc1ccc2c(c1)CCCC(Br)C2=O (centres undefined) | – | 10.9 µM | – | – | – | 26.3 | – | 3.04 µM | – | 17.2 µM | – | 12.5 | – | > 19.9 µM | – | 20.5 µM
[Cl][Hg][c]1cc(Br)cc(Br)c1 | 2.14 | 4.97 µM | 3.41 µM | 13.4 | 2.65 | 9.02 | 1.41 | 2.86 µM | 3.31 | 15.7 µM | 1.76 | 4.28 | 1.65 | 3.31 µM | 2.31 | 7.69 µM
COc1ccc(/C=C(/C(=O)N2CCN(c3ccccc3)CC2)c2cc(OC)c(OC)c(OC)c2)cc1O | 3.89 | 22.1 µM | 0.37 µM | > 100 | 0.938 | > 100 | 0.398 | > 100 µM | 0.808 | > 100 µM | 0.543 | > 100 | 0.205 | 0.708 µM | 2.7 | > 100 µM
C=CCCCCC/C=C\[C@H](O)C#CC#C/C=C/CO | 36.7 | > 100 µM | 22.6 µM | 48.6 | 22.6 | 50.9 | 16.4 | 29.9 µM | 60.3 | > 100 µM | 24.5 | 70.5 | 58.2 | > 100 µM | 90.8 | > 100 µM
OC[C@H]1C[C@](O)(c2ccc(Cl)cc2)[C@@H](c2ccc(Cl)cc2)O1 | 25.6 | 51.8 µM | 17.3 µM | 35.6 | 24.8 | 58.2 | 17.9 | 34.8 µM | 30.1 | 84.8 µM | 26.8 | > 100 | 23.3 | 53.8 µM | 32 | > 100 µM
CN(C)N=Nc1ccc(NC=O)cc1 | – | > 100 µM | – | > 100 | – | – | – | > 100 µM | – | > 100 µM | – | – | – | > 100 µM | – | > 100 µM
O=C(Nc1ccc(Cl)cc1F)c1ccccc1O | 5.7 | 41.2 µM | 3.15 µM | 11.3 | 2.12 | 6.13 | 2.95 | 10.4 µM | 2.35 | 5.87 µM | 3.63 | > 100 | 2.94 | 18.5 µM | 2.75 | > 100 µM
O=c1c2sc(=S)n(-c3ccc(F)cc3)c2ncn1Cc1ccc(F)cc1F | > 100 | > 100 µM | 81.8 µM | > 100 | > 100 | > 100 | > 100 | > 100 µM | 81.9 | > 100 µM | 76 | > 100 | > 100 | > 100 µM | > 100 | > 100 µM
CC(C)c1ccc2c(c1)CC[C@@H]1[C@@](C)(C(=O)O)CCC[C@]21C | 3.23 | 7.83 µM | 6.9 µM | 19.8 | – | – | 3.43 | 16.8 µM | 3.74 | 17.1 µM | – | – | – | – | 4.23 | 10.8 µM
Cc1nc2c(-c3cnc(N)nc3)nc(N3CCOCC3)nc2n1C(C)C | – | 1.1 µM and 3.68 µM | 0.254 µM and 0.289 µM | > 100 | – | – | – | 1.56 µM and 6.03 µM | – | 0.888 µM and 0.406 µM | – | > 100 | – | 1.17 µM and 0.481 µM | – | 1.99 µM and 0.786 µM
Cc1ccc(C)c(C2=C(c3cn(C)c4ccccc34)C(=O)NC2=O)c1 | 7.36 | > 25 µM | 7.58 µM | > 25 | > 25 | > 25 | > 19.5 | > 25 µM | 4.4 | > 19.4 µM | > 25 | > 25 | > 16.4 | > 25 µM | > 25 | > 25 µM
Cc1ccc(S(=O)(=O)N(CC(=O)O)c2ccccc2)cc1 | – | > 100 µM | – | – | – | > 100 | – | > 100 µM | – | > 100 µM | – | > 100 | – | > 100 µM | – | > 100 µM
CCn1c(-c2nonc2N)nc2c(C#CC(C)(C)O)nc(OC[C@H](N)c3ccccc3)cc21 | 3.52 | 7 µM | 3.55 µM | 6.99 | 5.21 | 12.4 | 3.84 | 7.89 µM | 2.95 | 7.22 µM | 4.94 | 11.2 | 2.35 | 6.07 µM | 5.01 | 9.61 µM
O=C(O)C1C2C=CC(O2)C1C(=O)NCc1ccccn1 (centres undefined) | – | > 100 µM | – | > 100 | – | > 100 | – | > 100 µM | – | > 100 µM | – | > 100 | – | > 100 µM | – | > 100 µM
O=C(OC(CNc1cc(=O)n(Cc2ccccc2)c(=O)n1Cc1ccccc1)CN1CCCC1)c1ccccc1 (centres undefined) | > 100 | > 100 µM | 56.8 µM | > 100 | > 100 | > 100 | > 100 | > 100 µM | > 100 | > 100 µM | > 100 | > 100 | > 100 | > 100 µM | > 100 | > 100 µM
C=C1C(=O)OC2CCN3CC=C(COC(=O)C(C)(O)C4(CO4)C1C)C23 (centres undefined) | – | > 100 µM | – | > 100 | – | > 100 | – | > 100 µM | – | > 100 µM | – | > 100 | – | – | – | > 100 µM
